Data published in ChEMBL document CHEMBL3102733, “The effect of chain length and unsaturation on Mtb Dxr inhibition and antitubercular killing activity of FR900098 analogs” (Bioorg Med Chem Lett, 2014).

Columns and labels:
[1] = tested on: Mycobacterium tuberculosis; test: Antimycobacterial activity against Mycobacterium tuberculosis H37Rv assessed as growth inhibition in presence of 7H9 nutrient-rich media; assay type: functional
[2] = tested on: Mycobacterium tuberculosis; test: Antimycobacterial activity against Mycobacterium tuberculosis H37Rv assessed as growth inhibition in presence of GAST minimal media; assay type: functional
[3] = target: T1, 1-deoxy-D-xylulose 5-phosphate reductoisomerase (Mycobacterium tuberculosis) (UniProt P9WNS1); test: Inhibition of Mycobacterium tuberculosis Dxr at 100 uM
T1 sequence (whole entry): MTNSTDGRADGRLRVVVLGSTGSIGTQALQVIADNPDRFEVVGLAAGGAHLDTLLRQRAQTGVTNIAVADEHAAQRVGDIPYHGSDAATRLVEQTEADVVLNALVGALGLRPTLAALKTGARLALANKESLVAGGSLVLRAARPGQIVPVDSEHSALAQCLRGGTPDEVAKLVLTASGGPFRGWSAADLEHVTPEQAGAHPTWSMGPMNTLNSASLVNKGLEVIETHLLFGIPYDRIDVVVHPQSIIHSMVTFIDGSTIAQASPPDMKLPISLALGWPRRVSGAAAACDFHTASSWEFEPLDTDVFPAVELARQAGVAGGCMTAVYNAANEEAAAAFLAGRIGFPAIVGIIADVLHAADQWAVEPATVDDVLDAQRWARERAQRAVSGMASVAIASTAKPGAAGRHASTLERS

[4] = target: T2, 1-deoxy-D-xylulose 5-phosphate reductoisomerase (Mycobacterium tuberculosis, UniProt P9WNS1); test: Inhibition of Mycobacterium tuberculosis Dxr
T2 sequence (P9WNS1 whole entry): T1 sequence (whole entry)

| SMILES | MIC [1] [µg/mL] | MIC [2] [µg/mL] | inhibition [3] [%] | IC50 [4] [nM] |
| --- | --- | --- | --- | --- |
| CCOP(=O)(CCCCCN(O)C(C)=O)OCC | > 200 | 200 | – | – |
| CC(=O)N(O)CCCCP(=O)(OCOC(=O)C(C)(C)C)OCOC(=O)C(C)(C)C | ≥ 200 | 150 | – | – |
| CCOP(=O)(CCN(O)C=O)OCC | > 500 | – | – | – |
| CC(=O)N(O)CCP(=O)([O-])O.[Na+] | > 200 | 150 | 74 | – |
| CCOP(=O)(/C=C/CN(O)C(C)=O)OCC | > 200 | 150 | – | – |
| CCOP(=O)(CCN(O)C(C)=O)OCC | > 500 | – | – | – |
| CC(=O)N(O)CCCCCP(=O)([O-])O.[Na+] | > 200 | > 200 | 86 | – |
| CC(=O)N(O)CCCCP(=O)([O-])O.[Na+] | > 200 | > 200 | 80 | – |
| CC(=O)N(O)CCCP(=O)(O)O [FR-900098] | – | – | – | 2390 |
| CCOP(=O)(CCCCN(O)C(C)=O)OCC | > 200 | 75 | – | – |
| CC(=O)N(O)C/C=C/P(=O)(OCOC(=O)C(C)(C)C)OCOC(=O)C(C)(C)C | 9.4 | 12.5 | – | – |
| CC(=O)N(O)C/C=C/P(=O)([O-])O.[Na+] | > 200 | 150 | – | 1070 |
